What all share (type): cell-based
Experiment [1] relates to E. coli. Briefly: MIC testing by broth microdilution, clinical isolates (Example 4). The settings on record: Escherichia coli, N=102. As to the method: (§1) The Gram-positive organisms tested were S. epidermidis, methicillin resistant S. epidermidis (MRSE), S. aureus, methicillin resistant S. aureus (MRSA), E. faecalis and vancomycin resistant E. faecalis, the Gram-negative organisms tested were P. aeruginosa, E. coli and K. pneumoniae .
(§2) For MIC testing, all isolates were tested against 5-FU by broth microdilution following CLSI methodology (M7-A7).

Another experiment concerns E. faecalis. Described as above. As to the method:
as §1, §2

Experiment [2] relates to K. pneumoniae. The experiment is described as above. The conditions noted are these: Klebsiella pneumoniae, N=104. As to the method:
as §1, §2

Experiment [3] deals with P. aeruginosa. The experiment is described as above. The conditions noted are these: Pseudomonas aeruginosa, N=100. As to the method: as §1, §2
For experiment [4], the system named is S. aureus. The experiment is described as above. The settings on record: Staphylococcus aureus. The protocol: as §1, §2
Experiment [5] has as its system S. epidermidis. Described as above. The settings on record: Staphylococcus epidermidis. As to the method: as §1, §2
The test system of experiment [6] is E. coli. The experiment is described as follows: Multi-organism zone-of-inhibition screening (Example 15). The conditions noted are these: 24 hr, one sample per plate, antibiotic disks 6 mm (Gentamicin 10 μg, penicillin 10 units). As to the method:
(§3) The 5-FU CVC was compared with the commercially available Arrow CVC. Gentamicin (10 μg) or penicillin (10 units) disks were used as positive controls and CVC was used as the negative control. The samples were challenged with 3 species of Gram-positive bacteria, 4 species of Gram-negative bacteria and 1 type of yeast. The organisms used to challenge the samples were the following ATCC strains: S. aureus, Methicillin Resistant Staphylococcus aureus (MRSA), S. epidermidis, K. pneumoniae, and Vancomycin Resistant Pediococcus (VRP), E. coli, P. aeruginosa and C. albicans.
(§4) Organisms were inoculated into 2 mL of liquid agar, which was poured on top of solidified agar. One plate was made per organism. Test articles were inserted into the agar when the plates were solidified and dry. ZOI results were recorded at 24 hr. […] Each plate also contained one negative and one positive control sample and 1 Arrow CVC sample.

In experiment [7] the test system is K. pneumoniae. The experiment is described as above. The conditions noted are these: 24 hr, one sample per plate, antibiotic disks 6 mm (Gentamicin 10 μg, penicillin 10 units). As to the method:
as §3, §4

Experiment [8] relates to Methicillin Resistant Staphylococcus aureus (MRSA). The experiment is described as above. The conditions noted are these: 24 hr, one sample per plate, antibiotic disks 6 mm (Gentamicin 10 μg, penicillin 10 units). The protocol: as §3, §4
For experiment [9], the system named is P. aeruginosa. The description is as above. The conditions noted are these: 24 hr, one sample per plate, antibiotic disks 6 mm (Gentamicin 10 μg, penicillin 10 units). As to the method: as §3
(§5) Organisms were inoculated into 2 mL of liquid agar, which was poured on top of solidified agar. One plate was made per organism. Test articles were inserted into the agar when the plates were solidified and dry. ZOI results were recorded at 24 hr. Three 0.5-cm sections of the 5-FU CVC were tested on each plate. Each plate also contained one negative and one positive control sample and 1 Arrow CVC sample.

Experiment [10] deals with S. aureus. Described as above. The settings on record: 24 hr, one sample per plate, antibiotic disks 6 mm (Gentamicin 10 μg, penicillin 10 units). As to the method:
as §3, §4

The test system of experiment [11] is S. epidermidis. Described as above. The conditions noted are these: 24 hr, one sample per plate, antibiotic disks 6 mm (Gentamicin 10 μg, penicillin 10 units). As to the method:
as §3, §4

Experiment [12] deals with Vancomycin Resistant Pediococcus (VRP). The experiment is described as above. The settings on record: 24 hr, one sample per plate, antibiotic disks 6 mm (Gentamicin 10 μg, penicillin 10 units). The protocol:
as §3, §4

The test system of the next experiment is C. albicans. Described as above. The conditions noted are these: 24 hr, one sample per plate, antibiotic disks 6 mm (Gentamicin 10 μg, penicillin 10 units). As to the method:
as §3, §5

Converted amounts (≈) assume the structure as drawn. Like-named read-outs stand apart in the source and are kept apart here. Bounds are passed on as bounds.

Turning to `C[C@H]1COc2c(N3CCN(C)CC3)c(F)cc3c(=O)c(C(=O)O)cn1c23` [Levofloxacin], the MIC90 (commonly an inhibitory concentration at the 90% level, which refers to growth in some studies and to a panel of isolates in others) in the experiment with E. coli [1] is 16 µg/mL (≈ 44.3 µM); in the experiment with E. faecalis (Enterococcus faecalis, all, N=101, read-out: MIC90), 64 µg/mL (≈ 177 µM); against E. faecalis (Vancomycin-R, N=21), 64 µg/mL (≈ 177 µM); in the experiment on E. faecalis (Vancomycin-S, N=80) it was 64 µg/mL (≈ 177 µM); against K. pneumoniae [2], 0.12 µg/mL (≈ 0.332 µM); against P. aeruginosa [3], 32 µg/mL (≈ 88.6 µM). In addition, the MIC90 against S. aureus [4] (Oxacillin-R, N=40) was 32 µg/mL (≈ 88.6 µM); against S. aureus [4] (Oxacillin-S, N=61), 16 µg/mL (≈ 44.3 µM); in the experiment on S. aureus [4] (all, N=101), 32 µg/mL (≈ 88.6 µM); in the experiment on S. epidermidis [5] (Oxacillin-R, N=78) it was > 128 µg/mL; with S. epidermidis [5] (Oxacillin-S, N=22), 128 µg/mL (≈ 354 µM); with S. epidermidis [5] (all, N=100), > 128 µg/mL.
With Gentamicin, the ZOI in the experiment on E. coli [6] was found to be 10.5 mm; in the experiment on K. pneumoniae [7] it was 9.5 mm; in [8], 7.1 mm; in the experiment on P. aeruginosa [9], 12.5 mm.
As to Penicillin, the ZOI in the experiment with S. aureus [10] was found to be 41.3 mm; in the experiment with S. epidermidis [11], 0 mm; in experiment [12], 0 mm; in the experiment on C. albicans, 0 mm.

The values are drawn from patent US20110150961A1, “ANTI-INFECTIVE CATHETERS” (priority 2008, published 2011).
